From US10829718B2, “Detergent composition comprising a carbinol functional trisiloxane” (Dow Silicones Corporation, priority 2016, dated 2020)

Format: physicochemical
Source text: The directive essentially states that if a material is classified as a surfactant in must pass certain biodegradation protocols. A surfactant was generally defined as a material capable of: 1) reducing the surface tension of water to ≤45 dynes/cm (or ≤45 mN/m) at a concentration of 0.5 wt % of the material in water; 2) forming spreading or adsorption monolayers at an air/water interface; 3) forming emulsions, microemulsions and/or micelles; and 4) adsorption at a water/solid interface. Surface tension of an aqueous solution, fluid, or mixture can readily be determined by various methods understood in the art. Generally, for stable solutions or mixtures, an equilibrium method such as the Wilhelmy plate method or Du Noüy ring method can be utilized. Alternately, for more dynamic systems, a pendant drop method can be utilized. This technique results in a fresh surface for each measurement. This method is also useful to reduce the potential for insoluble hydrophobic impurities or oils which could impact the surface tension measurement resulting in artificially low surface tension values. An example of such a surfactant assessment/classification is illustrated in the flow diagram of FIG. 3. Referring to the protocol illustrated in FIG. 3, the initial assessment is whether or not a 0.5 wt % mixture of the material being tested is soluble in water. Mixtures were prepared by adding 0.5% of the material to distilled water at 20° C. and mixing with a magnetic stir bar for one hour. If the material is soluble in water, as indicated, for example, by the formation of a clear or slightly hazy mixture, then surface tension (σ) is determined. If σ is >45 mN/m, the material is not classified as a surfactant. If σ is ≤45 mN/m, and micelles are not present, the material is not classified as a surfactant. Conversely, if micelles are present, the material is classified as a surfactant. If the material is not soluble in water, and no emulsion is present (e.g. solid particles or gels are present instead), then the material is not classified as a surfactant. If an emulsion is present (e.g. droplets are present) and the emulsion in stable, then σ is determined. If σ is >45 mN/m, the material is not classified as a surfactant. Conversely, if σ is ≤45 mN/m, the material is classified as a surfactant. If the material is not soluble in water, and an emulsion is present (e.g. droplets are present) and the emulsion is not stable, the emulsion is then centrifuged. The (clear) main phase (or supernatant) of the emulsion is further studied and the a is determined. If σ is >45 mN/m, the material is not classified as a surfactant. Conversely, if σ is ≤45 mN/m, and micelles are not present, the material is not classified as a surfactant. […]

solubility in water: generally insoluble
stability of the mixture in water: stable
appearance / behaviour of the mixture in water (0.5 wt % mixture in water): formed a hazy mixture
classification as surfactant / non-surfactant according to the protocol/flow diagram (0.5 wt % of the material in distilled water at 20° C., mixed one hour): surfactant
SMILES: CN(CC(O)COCCC[Si](C)(O[Si](C)(C)C)O[Si](C)(C)C)C[C@H](O)[C@@H](O)[C@H](O)[C@H](O)CO (stereo partly shown) [Example 11, BisH-AGE-NMG]
